What all share (assay): NCI tumour cell line growth inhibition, 48 h
Assay [1] deals with LOX IMVI melanoma.
The subject of assay [2] is RXF 393 renal.
For assay [3], the system named is HOP-92 NSCLC.
In assay [4] the test system is HCT-116 colon.
In assay [5] the test system is HL-60(TB) leukemia.
For assay [6], the system named is SK-MEL-28 melanoma.
Assay [7] relates to KM12 colon.
Assay [8] concerns NCI-H522 lung.
Assay [9] concerns SR leukemia.

These results are taken from PubChem BioAssay (NCI).

The structures appear in SMILES notation.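 A five-concentration, 48-hour dose response in 96-well plates underlies each endpoint, interpolated linearly between surrounding concentrations. GI50: concentration for 50% inhibition of growth. The concentration for full growth arrest is given as TGI.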

Regarding `COc1ccccc1C12OC(=O)C1(C)Oc1ccccc1C2=O` (centres undefined), the TGI in assay [1], in assay [2], in assay [3], in assay [4], in [5] and in assay [6] was over 100 µM in each case. The compound also registered a TGI in assay [7] of over 100 µM.

With `O=S1(=O)c2ccccc2NC(c2ccc3ccccc3c2)CC1c1ccccc1F` (centres undefined), the TGI in [8], in assay [1], in assay [2], in assay [5], in assay [6] and in assay [7] was over 100 µM in each case.

Consider `COC(CN1C(=O)c2cccc3cccc(c23)C1=O)OC`, for which the TGI in assay [1], in [2], in assay [3], in [9], in assay [4] and in assay [5] was over 100 µM throughout. For the same compound, the TGI in assay [6] and in [7] was over 100 µM in each case.

For the compound `Clc1cc2nsnc2c(Cl)n1`, the TGI in assay [8] is 36.7 µM; in assay [1] it was over 100 µM; in assay [3] it was 33.1 µM; in [5] it was 36.2 µM; in assay [6], 44.4 µM; in [7], over 100 µM.

Take `O=C(/C=C/c1ccccc1)NC1C=Nc2ccc(Cl)cc2NC1=O` (centres undefined): the TGI in assay [8] was 34.6 µM; in assay [1], 55.9 µM; in [2], 52.4 µM; in assay [3] it was over 100 µM; in assay [9] it was 56.3 µM; in [4] it was 85.7 µM. Further, the TGI is 30.3 µM in assay [5], over 100 µM in assay [6] and 56.8 µM in [7].

On to `CCOc1ccc(NC(=O)C(=O)CC(=O)c2c[n+](=O)c3cc(C)c(C)cc3n2[O-])cc1`, for which the TGI in assay [8], in assay [1], in [2], in assay [3], in assay [9] and in assay [4] was over 100 µM in each case. For the same compound, the TGI in assay [5], in assay [6] and in assay [7] was over 100 µM in each case.

As for `CN1C(=O)C(C)(C)C2(SC(C)(C)C2(C)C)N(C)C1=S` (centres undefined), the TGI in assay [8], in assay [2], in assay [3], in assay [9], in assay [4] and in assay [5] was over 100 µM in each case. For the same compound, the TGI in [6] and in assay [7] was over 100 µM each time.

On to `COC1(OC)CCC2C1C1CCC(OC)(OC)C21` (centres undefined), for which the TGI in assay [8], in [2], in assay [3], in assay [4], in assay [5] and in [6] was over 50 µM each time. This compound displayed a TGI in assay [7] of over 50 µM.

For `N#CCCN(CCC#N)c1ccc(/C=C2\N=C(c3cc([N+](=O)[O-])ccc3Cl)OC2=O)cc1`, the TGI in [8] is 27.6 µM; in [1], 46.5 µM; in assay [9], 56.7 µM; in [4], over 100 µM; in [5], 67.3 µM; in [6], over 100 µM. The same compound showed a TGI in assay [7] of 28.2 µM.

Turning to `CC1=C(C(=O)Nc2ccc(Cl)c(Cl)c2)C(c2cccc(Oc3ccccc3)c2)NC(=S)N1` (centres undefined), the GI50 in assay [8] was 11.7 µM; in [1] it was 7.48 µM; in assay [2], 7.33 µM; in assay [3] it was 13.3 µM; in [9] it was 44.9 µM; in assay [4], 20.6 µM. The GI50 was 15.9 µM in assay [5] and 5.71 µM in assay [7]. Further, the TGI in [8] is 21.8 µM; in [1] it was 14.7 µM; in [2], 22.1 µM; in assay [3], 31.2 µM; in assay [9] it was over 50 µM; in assay [4], over 50 µM. For the same compound, the results for the TGI in [5] and in [7] were over 50 µM and 12.6 µM, respectively.

With `CC(C)=CC(=O)C1c2cccc(O)c2C(=O)c2c(O)cc(C)cc21` (centres undefined), the TGI in assay [8] was 3.85 µM; in assay [1] it was 3.74 µM; in assay [2], 4.39 µM; in assay [3] it was 7.83 µM; in assay [4] it was 6.39 µM; in assay [5], 9.15 µM. For the same compound, the TGI turned out to be 9.04 µM in assay [6] and 3.17 µM in [7].

On to `O=C1C2C(C(=O)N1OS(=O)(=O)c1ccccc1)N(Cc1ccccc1)C(=O)N2Cc1ccccc1` (centres undefined), for which the TGI in [8], in assay [1], in assay [2], in assay [3], in assay [9] and in [4] was over 100 µM throughout. The TGI in [5], in [6] and in [7] was over 100 µM throughout.

On to `Cc1ccc(N=Nc2ccc(N(CCC#N)CCC#N)cc2C)c(Br)c1`, for which the TGI in assay [8] was over 100 µM; in assay [2] it was 46.1 µM; in [5], 65.7 µM; in assay [6], over 100 µM; in [7], 55.8 µM.

Regarding `COC(=O)CC1CCN(C#N)CC1CC[N+](=O)[O-]` (centres undefined), the TGI in assay [8], in [2], in assay [9], in assay [4], in [5] and in [6] was over 100 µM each time. Further, the TGI in assay [7] was over 100 µM.

As to `COc1cc2c(cc1OC)-c1c3cc(O)ccc3nn[n+]1CC2`, the TGI in assay [8], in [1], in assay [2], in [4], in [5] and in [6] was over 100 µM throughout. In assay [7], the TGI was over 100 µM.

In the case of `Cc1nc2ccccc2c(=O)n1-c1ccccc1I`, the TGI in [8], in assay [9], in assay [4], in [5] and in assay [6] was over 100 µM in each case.
